These results are taken from ChEMBL document CHEMBL1121381, “Beta-adrenergic blocking agents. 19. 1-Phenyl-2-[[(substituted-amido)alkyl]amino]ethanols” (1980).

For one assay, the species on record is Felis catus. Put plainly: Percentage inhibition of depressor response in cat was determined. It counts as functional. On the set-up: concentration or dose not given beside the values.
In assay [1] the target is Adrenergic receptor beta (Rattus norvegicus) (UniProt P18090+P10608+P26255). Briefly: In vivo beta-adrenoceptor blocking potency measured by blockade of the isoproterenol tachycardia response in rat. It counts as functional, organism-based.

As a reminder, the Inhibition is the percentage by which the read-out fell short of the control. A word on the ED50: it is the dose that gives a 50% effect, or the effect in half of the subjects. In the assay filed under Felis catus, `O=S(=O)(Cc1ccccc1)NCCNCC(O)c1ccccc1` (stereo unspecified) gave an Inhibition of 0%. In addition, it took a dose of 2 mg/kg to reach the 50% effect level in assay [1] (ED50).

In assay [1], `CC(C)C(=O)NCCNCC(O)c1ccc(Cl)cc1Cl` (stereo unspecified) yielded an ED50 of 0.75 mg/kg.

For the compound `CC(C)C(=O)NCCNCC(O)c1ccc(N)cc1` (stereo unspecified), the Inhibition in the assay filed under Felis catus is listed as 69%. The ED50 in assay [1] came out at 0.6 mg/kg.

In assay [1], `COc1ccc(CC(=O)NCCNCC(O)c2ccccc2)cc1OC` (stereo unspecified) yielded an ED50 of 7 mg/kg.

Take `CC(=O)Nc1ccc(CC(=O)NCCNCC(O)c2ccccc2)cc1` (stereo unspecified): in assay [1], the ED50 is 1.2 mg/kg.

In assay [1], `O=C(NCCNCC(O)c1ccccc1)C(F)(F)F` (stereo unspecified) showed an ED50 of 0.1 mg/kg.

Take `O=[N+]([O-])c1ccccc1S(=O)(=O)NCCNCC(O)c1ccccc1` (stereo unspecified): in the assay filed under Felis catus, the Inhibition stood at 23%. This compound also showed an ED50 in assay [1] of 2.5 mg/kg.

Consider `CC(=O)Nc1ccc(OCC(O)CNC(C)C)cc1` (stereo unspecified) [PRACTOLOL], for which, in the assay listed under Felis catus, the Inhibition was found to be 8%.

Turning to `CC(C)C(=O)NCCNCC(O)c1ccccc1` (stereo unspecified), the Inhibition in the assay filed under Felis catus is listed as 27%. In addition, the ED50 in assay [1] was determined as 0.7 mg/kg.

`CC(CNCC(O)c1ccccc1)NC(=O)Cc1ccccc1` (stereo unspecified) had an ED50 in assay [1] of 8 mg/kg.

`Cl.O=C(NCCNCC(O)c1ccccc1)C1CCCCC1` (stereo unspecified) registered an Inhibition in the assay listed under Felis catus of 0%. Moreover, the 50% effect level in assay [1] (ED50) was put at a dose of 0.16 mg/kg.

Consider `CC(C)NCC(O)c1ccc(NS(C)(=O)=O)cc1` (stereo unspecified) [SOTALOL], for which the Inhibition in the assay listed under Felis catus is reported as 85%.

Compound `COc1ccc(C(O)CNCCNC(=O)C(C)C)cc1` (stereo unspecified) registered an Inhibition in the assay listed under Felis catus of 0%. The same compound gave an ED50 in assay [1] of 0.3 mg/kg.

With `C=CCOc1ccccc1OCC(=O)NCCNCC(O)c1ccccc1` (stereo unspecified), in assay [1], the ED50 amounted to 5.8 mg/kg.

In assay [1], `O=C(NCCNCC(O)c1ccccc1)c1ccccc1` (stereo unspecified) yielded an ED50 of 10 mg/kg.

Turning to `CCC(=O)NCCNCC(O)c1ccc(C)cc1` (stereo unspecified), the median effective dose (ED50) in assay [1] was determined as 0.5 mg/kg.

For the compound `COCC(=O)NCCNCC(O)c1ccccc1` (stereo unspecified), in the assay listed under Felis catus, the Inhibition is reported as 44%. For the same compound, the 50% effect level in assay [1] (ED50) was put at a dose of 0.4 mg/kg.

As to `O=C(COc1ccccc1)NCCNCC(O)c1ccccc1` (stereo unspecified), in assay [1], it took a dose of 1 mg/kg to reach the 50% effect level (ED50).

Consider `O=C(NCCNCC(O)c1ccccc1)C1CCCC1` (stereo unspecified), for which, in the assay filed under Felis catus, the Inhibition is 8%. The compound also came in with an ED50 in assay [1] of 0.42 mg/kg.

For the compound `O=C(COc1ccc(Cl)cc1)NCCNCC(O)c1ccccc1` (stereo unspecified), the Inhibition in the assay filed under Felis catus was 36%. The same compound had an ED50 in assay [1] of 2.5 mg/kg.

In the case of `NC(=O)c1ccccc1OCC(=O)NCCNCC(O)c1ccccc1` (stereo unspecified), the ED50 in assay [1] amounted to 5.2 mg/kg.

Compound `CCC(=O)NCCNCC(O)c1ccccc1` (stereo unspecified) had an Inhibition in the assay listed under Felis catus of 46%. The compound further displayed a median effective dose (ED50) in assay [1] of 0.07 mg/kg.

`CC(=O)c1ccc(OCC(=O)NCCNCC(O)c2ccccc2)cc1` (stereo unspecified) registered an ED50 in assay [1] of 0.6 mg/kg.

Consider `CCC(C)NCC(O)c1ccc2c(c1)CCCC2.Cl` (stereo unspecified), for which, in the assay listed under Felis catus, the Inhibition amounted to 47%.

Take `CC(C)CC(=O)NCCNCC(O)c1ccccc1` (stereo unspecified): the Inhibition in the assay listed under Felis catus came out at 25%. In assay [1], this compound registered an ED50 of 0.72 mg/kg.

In the case of `CC(CNC(=O)Cc1ccccc1)NCC(O)c1ccccc1` (stereo unspecified), the Inhibition in the assay filed under Felis catus is listed as 36%. The compound also had an ED50 in assay [1] of 0.1 mg/kg.

The compound `Nc1ccc(CC(=O)NCCNCC(O)c2ccccc2)cc1` (stereo unspecified) showed an ED50 in assay [1] of 2.5 mg/kg.

Take `CC(CNC(=O)C1CCCCC1)NCC(O)c1ccccc1` (stereo unspecified): in the assay listed under Felis catus, the Inhibition is 19%. This compound yielded an ED50 in assay [1] of 0.11 mg/kg.

Turning to `O=S(=O)(NCCNCC(O)c1ccccc1)c1ccccc1` (stereo unspecified), the Inhibition in the assay listed under Felis catus was determined as 27%. Besides, the ED50 in assay [1] came out at 1 mg/kg.

Turning to `CCCCCC(=O)NCCNCC(O)c1ccccc1` (stereo unspecified), the Inhibition in the assay listed under Felis catus turned out to be 8%. The compound further had an ED50 in assay [1] of 1.4 mg/kg.

`O=C(CO)NCCNCC(O)c1ccccc1` (stereo unspecified) registered an ED50 in assay [1] of 0.3 mg/kg.

`O=C(NCCNCC(O)c1ccccc1)c1ccc(O)cc1` (stereo unspecified): the Inhibition in the assay listed under Felis catus is recorded as 10%. The same compound showed an ED50 in assay [1] of 9 mg/kg.

On to `CCOC(=O)NCCNCC(O)c1ccccc1` (stereo unspecified), for which the 50% effect level in assay [1] (ED50) was put at a dose of 2.8 mg/kg.

Turning to `CC(CNC(=O)Cc1ccccc1Cl)NCC(O)c1ccccc1` (stereo unspecified), the Inhibition in the assay listed under Felis catus is listed as 19%. In assay [1], this compound came in with an ED50 of 0.03 mg/kg.

`CCCS(=O)(=O)NCCNCC(O)c1ccccc1` (stereo unspecified): the Inhibition in the assay filed under Felis catus was determined as 0%. Further, the ED50 in assay [1] came out at 0.5 mg/kg.

In the assay listed under Felis catus, `COc1ccc(CC(=O)NCCNCC(O)c2ccccc2)cc1` (stereo unspecified) returned an Inhibition of 24%. This compound showed an ED50 in assay [1] of 0.32 mg/kg.

Compound `CC(C)C(=O)NCCNCC(O)c1ccc(Br)cc1` (stereo unspecified) showed an ED50 in assay [1] of 1.6 mg/kg.

Turning to `O=C(NCCNCC(O)c1ccccc1)Nc1ccccc1` (stereo unspecified), the Inhibition in the assay filed under Felis catus is 0%. The same compound displayed an ED50 in assay [1] of 2.9 mg/kg.

For `CCCC(=O)NCCNCC(O)c1ccccc1` (stereo unspecified), the Inhibition in the assay listed under Felis catus is listed as 0%. Besides, in assay [1], the ED50 was determined as 0.45 mg/kg.

The compound `CCCCNC(=O)NCCNCC(O)c1ccccc1` (stereo unspecified) returned an Inhibition in the assay listed under Felis catus of 54%. The compound also gave a median effective dose (ED50) in assay [1] of 0.5 mg/kg.

For the compound `C=CCNC(=O)NCCNCC(O)c1ccccc1` (stereo unspecified), the Inhibition in the assay listed under Felis catus was 0%. The compound also yielded an ED50 in assay [1] of 0.26 mg/kg.

On to `O=C(Cc1ccc(Cl)cc1)NCCNCC(O)c1ccccc1` (stereo unspecified), for which the Inhibition in the assay listed under Felis catus stood at 3%. Also, in assay [1], the ED50 is 0.7 mg/kg.

In assay [1], `CC(O)c1ccc(OCC(=O)NCCNCC(O)c2ccccc2)cc1` (stereo unspecified) gave an ED50 of 1.6 mg/kg.

For the compound `CC(C)(CNC(=O)Cc1ccccc1)NCC(O)c1ccccc1.O=C(O)/C=C/C(=O)O` (stereo unspecified), the Inhibition in the assay filed under Felis catus is on record as 28%. Besides, the ED50 in assay [1] came to 0.1 mg/kg.

In the assay filed under Felis catus, `O=C(Cc1ccccc1)NCCNCC(O)c1ccccc1Cl.O=C(O)/C=C/C(=O)O` (stereo unspecified) registered an Inhibition of 45%. The compound also had an ED50 in assay [1] of 0.6 mg/kg.

Compound `CC(=O)NCCNCC(O)c1ccccc1` (stereo unspecified) had an Inhibition in the assay listed under Felis catus of 50%. In assay [1], this compound displayed an ED50 of 0.08 mg/kg.

For `O=C(Cc1ccccc1)NCCNCC(O)c1ccccc1` (stereo unspecified), the Inhibition in the assay listed under Felis catus amounted to 6%. This compound showed an ED50 in assay [1] of 0.38 mg/kg.

In the case of `N#Cc1ccc(OCC(=O)NCCNCC(O)c2ccccc2)cc1` (stereo unspecified), in assay [1], the ED50 came to 0.7 mg/kg.

On to `CC(C)C(=O)NCCNCC(O)c1ccc([N+](=O)[O-])cc1` (stereo unspecified), for which, in the assay listed under Felis catus, the Inhibition was 0%. Further, in assay [1], the ED50 came out at 10 mg/kg.

Turning to `CC(C)C(=O)NCCNCC(O)c1ccc(NS(C)(=O)=O)cc1` (stereo unspecified), in assay [1], the ED50 came out at 5.2 mg/kg.

For `CC(C)C(=O)NCC(C)(C)NCC(O)c1ccccc1` (stereo unspecified), the Inhibition in the assay listed under Felis catus stood at 9%. Besides, the ED50 in assay [1] worked out at 0.27 mg/kg.
